IC50 data for 40 compounds are collected here from patent US20250320184A1 (SIRONAX LTD., priority 2022, published 2025).

This test deals with T1, SARM1 (50-724) (Homo sapiens, UniProt Q6SZW1).
T1 sequence (Q6SZW1 50-724): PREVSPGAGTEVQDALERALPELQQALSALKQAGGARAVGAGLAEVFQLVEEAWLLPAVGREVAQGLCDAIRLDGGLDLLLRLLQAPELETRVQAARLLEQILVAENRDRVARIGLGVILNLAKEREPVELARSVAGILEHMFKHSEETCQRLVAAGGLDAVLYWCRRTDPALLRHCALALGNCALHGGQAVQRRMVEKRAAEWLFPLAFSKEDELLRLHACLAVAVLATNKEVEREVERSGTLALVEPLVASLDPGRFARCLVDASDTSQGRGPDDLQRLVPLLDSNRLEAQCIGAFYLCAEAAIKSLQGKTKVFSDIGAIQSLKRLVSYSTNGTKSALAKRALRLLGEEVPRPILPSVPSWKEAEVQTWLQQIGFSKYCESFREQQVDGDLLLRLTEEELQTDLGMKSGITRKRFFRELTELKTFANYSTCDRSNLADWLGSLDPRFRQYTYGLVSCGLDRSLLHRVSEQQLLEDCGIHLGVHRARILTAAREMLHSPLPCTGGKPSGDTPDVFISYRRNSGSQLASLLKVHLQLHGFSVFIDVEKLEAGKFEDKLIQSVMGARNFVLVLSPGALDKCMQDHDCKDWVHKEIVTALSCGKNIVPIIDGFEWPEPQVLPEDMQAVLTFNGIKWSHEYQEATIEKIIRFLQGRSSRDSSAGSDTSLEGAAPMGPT
The test can be described thus: biochemical.
Protocol: An enzymatic assay was performed in a 384-well plate using Dulbecco's phosphate-buffered saline (PBS) as the reaction buffer. […] The reaction was initiated by adding a mixture of 200 μM nicotinamide mononucleotide (NMN) as activator and 100 μM NAD^+ as substrate. After 1 h of incubation at room temperature, the reaction was terminated with 10 times volume of 70% acetonitrile, then centrifuged at 3800 rpm for 10 min.
In general, IC50 refers to the midpoint of a concentration-inhibition curve. `O=S(=O)(Nc1cc2ccccc2cn1)c1cccc(Cl)c1Cl` [Compound 76, 2,3-dichloro-N-(isoquinolin-3-yl)benzenesulfonamide]: the IC50 lay in the range of 100 to 500 nM.
The compound `Cn1cnc2cc(NS(=O)(=O)c3cccc(Cl)c3Cl)ccc21` [Compound 77, 2,3-dichloro-N-(1-methyl-1H-benzo[d]imidazol-5-yl)benzenesulfonamide] yielded an IC50 of 100 to 500 nM.
Turning to `O=S(=O)(Nc1ccc2c(Cl)n[nH]c2c1)c1cccc(Cl)c1Cl` [Compound 78, 2,3-dichloro-N-(3-chloro-1H-indazol-6-yl)benzenesulfonamide], the concentration for half-maximal inhibition (IC50) is less than 100 nM.
`Cn1ncc2cc(NS(=O)(=O)c3cccc(Cl)c3Cl)ccc21` [Compound 79, 2,3-dichloro-N-(1-methyl-1H-indazol-5-yl)benzenesulfonamide]: the IC50 lay in the range of 100 to 500 nM.
To `N#CCn1ccc2ccc(NS(=O)(=O)c3cccc(Cl)c3Cl)cc2c1=O` [Compound 80, 2,3-dichloro-N-(2-(cyanomethyl)-1-oxo-1,2-dihydroisoquinolin-7-yl)benzenesulfonamide] belongs 100 to 500 nM; to `Cc1n[nH]c2cc(NS(=O)(=O)c3c(Cl)ccc(Cl)c3Cl)ccc12` [Compound 81, 2,3,6-trichloro-N-(3-methyl-1H-indazol-6-yl)benzenesulfonamide], less than 100 nM.
Compound `O=c1[nH]cnc2ccc(NS(=O)(=O)c3c(Cl)ccc(Cl)c3Cl)cc12` [Compound 82, 2,3,6-trichloro-N-(4-oxo-3H-quinazolin-6-yl)benzenesulfonamide] yielded an IC50 of less than 100 nM.
Regarding `O=S(=O)(Nc1cccc(-c2cnccn2)c1)c1cccc(Cl)c1Cl` [Compound 83, 2,3-dichloro-N-(3-pyrazin-2-ylphenyl)benzenesulfonamide], the IC50 lay in the range of 100 to 500 nM.
The compound `O=C1CCCc2ccc(NS(=O)(=O)c3cccc(Cl)c3Cl)cc2N1` [Compound 84, 2,3-dichloro-N-(2-oxo-2,3,4,5-tetrahydro-1H-benzo[b]azepin-8-yl)benzenesulfonamide] displayed an IC50 of less than 100 nM.
In the case of `N#Cc1cccc2ccc(NS(=O)(=O)c3cccc(Cl)c3Cl)cc12` [Compound 85, 2,3-dichloro-N-(8-cyanonaphthalen-2-yl)benzenesulfonamide], the IC50 fell in the range of 100 to 500 nM.
`COc1ccc(NS(=O)(=O)c2cccc(Cl)c2Cl)cc1C(N)=O` [Compound 86, 5-((2,3-dichlorophenyl)sulfonamido)-2-methoxybenzamide] registered an IC50 of 100 to 500 nM.
Regarding `NC(=O)c1cccc2ccc(NS(=O)(=O)c3cccc(Cl)c3Cl)cc12` [Compound 87, 7-((2,3-dichlorophenyl)sulfonamido)-1-naphthamide], the IC50 was 100 to 500 nM.
On to `O=S(=O)(Nc1ccc2c(C3CC3)n[nH]c2c1)c1cccc(Cl)c1Cl` [Compound 88, 2,3-dichloro-N-(3-cyclopropyl-1H-indazol-6-yl)benzenesulfonamide], for which the IC50 was less than 100 nM.
`COc1cc2cc(NS(=O)(=O)c3cccc(Cl)c3Cl)ccc2cn1` [Compound 89, 2,3-dichloro-N-(3-methoxyisoquinolin-6-yl)benzenesulfonamide] returned an IC50 of 100 to 500 nM.
As for `O=c1[nH]cc(Cl)c2ccc(NS(=O)(=O)c3cccc(Cl)c3Cl)cc12` [Compound 91, 2,3-dichloro-N-(4-chloro-1-oxo-1,2-dihydroisoquinolin-7-yl)benzenesulfonamide], the figure is less than 100 nM; as for `C[C@H](Nc1ccc2ccnc(O)c2c1)c1cccc(Cl)c1` [Compound 92, (S)-7-((1-(3-chlorophenyl)ethyl)amino)isoquinolin-1-ol], 100 to 500 nM; as for `Cc1cc(F)cc(C(Nc2ccc3c(c2)C(=O)NCC3)c2cccnc2)c1` (stereo not shown) [Compound 178], greater than 1000 nM.
To `Cc1c[nH]c(=O)c2cc(NS(=O)(=O)c3cccc(Cl)c3Cl)ccc12` [Compound 188, 2,3-dichloro-N-(4-methyl-1-oxo-1,2-dihydroisoquinolin-7-yl)benzenesulfonamide] belongs less than 100 nM; to `CC1CNC(=O)c2cc(NS(=O)(=O)c3cccc(Cl)c3Cl)ccc21` (stereo not shown) [Compound 189], less than 100 nM; to `Cc1c(Br)cccc1S(=O)(=O)Nc1ccc2cc[nH]c(=O)c2c1` [Compound 191, 3-bromo-2-methyl-N-(1-oxo-1,2-dihydroisoquinolin-7-yl)benzenesulfonamide], less than 100 nM.
To `O=c1[nH]cc(Cl)c2ccc(NS(=O)(=O)c3c(Cl)ccc(Cl)c3Cl)cc12` [Compound 197, 2,3,6-trichloro-N-(4-chloro-1-oxo-1,2-dihydroisoquinolin-7-yl)benzenesulfonamide] belongs less than 100 nM; to `CC(Nc1ccc2nc[nH]c(=O)c2c1)c1nc(Cl)c(Cl)s1` (stereo not shown) [Compound 202, 6-((1-(4,5-dichlorothiazol-2-yl)ethyl)amino)quinazolin-4(3H)-one], less than 100 nM; to `CC1(C)C(=O)Nc2cc(NS(=O)(=O)c3cccc(Cl)c3Cl)ccc21` [Compound 204, 2,3-dichloro-N-(3,3-dimethyl-2-oxo-indolin-6-yl)benzenesulfonamide], less than 100 nM.
`O=C1NCCOc2ccc(NS(=O)(=O)c3cccc(Cl)c3Cl)cc21` [Compound 206, 2,3-dichloro-N-(5-oxo-3,4-dihydro-2H-1,4-benzoxazepin-7-yl)benzenesulfonamide]: the IC50 is 100 to 500 nM.
`O=C1Nc2cc(NS(=O)(=O)c3cccc(Cl)c3Cl)ccc2C12CC2` [Compound 208, 2,3-dichloro-N-(2′-oxospiro[cyclopropane-1,3′-indolin]-6′-yl)benzenesulfonamide] came in with an IC50 of less than 100 nM.
Regarding `CC1(C)C(=O)Nc2cc(NS(=O)(=O)c3c(Cl)ccc(Cl)c3Cl)ccc21` [Compound 209, 2,3,6-trichloro-N-(3,3-dimethyl-2-oxoindolin-6-yl)benzenesulfonamide], the IC50 is less than 100 nM.
As for `CN1C(=O)C(C)(C)c2ccc(NS(=O)(=O)c3cccc(Cl)c3Cl)cc21` [Compound 211, 2,3-dichloro-N-(1,3,3-trimethyl-2-oxoindolin-6-yl)benzenesulfonamide], the figure is less than 100 nM; as for `O=C1Nc2cc(NS(=O)(=O)c3cccc(Cl)c3Cl)ccc2C12CCCC2` [Compound 212, 2,3-dichloro-N-(2′-oxospiro[cyclopentane-1,3′-indolin]-6′-yl)benzenesulfonamide], less than 100 nM.
The compound `O=C1Cc2ccc(NS(=O)(=O)c3cccc(Cl)c3Cl)cc2CN1` [Compound 217, 2,3-dichloro-N-(3-oxo-1,2,3,4-tetrahydroisoquinolin-7-yl)benzenesulfonamide] displayed an IC50 of 100 to 500 nM.
With `CC1(C)CNc2cc(NS(=O)(=O)c3cccc(Cl)c3Cl)ccc21` [Compound 219, 2,3-dichloro-N-(3,3-dimethylindolin-6-yl)benzenesulfonamide], the IC50 was less than 100 nM.
In the case of `CC(=O)N1CC(C)(C)c2ccc(NS(=O)(=O)c3cccc(Cl)c3Cl)cc21` [Compound 220, N-(1-acetyl-3,3-dimethyl-indolin-6-yl)-2,3-dichloro-benzenesulfonamide], the IC50 is less than 100 nM.
For the compound `O=C1Nc2cc(NS(=O)(=O)c3cccc(Cl)c3Cl)ccc2CO1` [Compound 224, 2,3-dichloro-N-(2-oxo-1,4-dihydro-2H-benzo[d][1,3]oxazin-7-yl)benzenesulfonamide], the IC50 is less than 100 nM.
Compound `Cn1c(C(N)=O)nc2cc(NS(=O)(=O)c3cccc(Cl)c3Cl)ccc21` [Compound 225, 5-((2,3-dichlorophenyl)sulfonamido)-1-methyl-1H-benzo[d]imidazole-2-carboxamide] showed an IC50 of 100 to 500 nM.
`CC1(C)NC(=O)c2cc(NS(=O)(=O)c3cccc(Cl)c3Cl)ccc21` [Compound 227, 2,3-dichloro-N-(1,1-dimethyl-3-oxoisoindolin-5-yl)benzenesulfonamide] returned an IC50 of less than 100 nM.
For the compound `CC1C(=O)Nc2cc(NS(=O)(=O)c3cccc(Cl)c3Cl)ccc21` (stereo not shown) [Compound 235], the IC50 was less than 100 nM.
In turn, `CC1(C)C(=O)N(CCO)c2cc(NS(=O)(=O)c3cccc(Cl)c3Cl)ccc21` [Compound 240, 2,3-dichloro-N-(1-(2-hydroxyethyl)-3,3-dimethyl-2-oxoindolin-6-yl)benzenesulfonamide] gave an IC50 of less than 100 nM.
`CC1(C)C(=O)N(CC(=O)O)c2cc(NS(=O)(=O)c3cccc(Cl)c3Cl)ccc21` [Compound 241, 2-[6-[(2,3-dichlorophenyl)sulfonylamino]-3,3-dimethyl-2-oxo-indolin-1-yl]acetic Acid] yielded an IC50 of less than 100 nM.
Consider `CC1(C)CN(C(N)=O)c2cc(NS(=O)(=O)c3cccc(Cl)c3Cl)ccc21` [Compound 242, 6-((2,3-dichlorophenyl)sulfonamido)-3,3-dimethylindoline-1-carboxamide], for which the IC50 is less than 100 nM.
On to `CC1(C)CN(C(=O)C2CC2)c2cc(NS(=O)(=O)c3cccc(Cl)c3Cl)ccc21` [Compound 243, 2,3-dichloro-N-(1-(cyclopropanecarbonyl)-3,3-dimethylindolin-6-yl)benzenesulfonamide], for which the IC50 was less than 100 nM.
Take `O=S(=O)(Nc1ccc(Cc2cncs2)cc1)c1cccc(Cl)c1Cl` [Compound 251, 2,3-dichloro-N-(4-(thiazol-5-ylmethyl)phenyl)benzenesulfonamide]: the IC50 was less than 100 nM.
